Earlier results as cited in patent US20130101864A1, “Multifunctional Long-Acting Rust-Proof Film and Manufacturing Method Thereof” (Zhejiang Great Southeast Packaging Co., Ltd., priority 2010, published 2013).

Experiments:
[1] = no harmful physiological toxicity on human body

solubility in organic solvents (alcohol, benzene, toluene, chloroform and dimethylformamide): soluble | solubility in water (water): slightly soluble
Compound: c1ccc2[nH]nnc2c1 [Benzotriazole]
toxicity [1]: non-toxic
